Among the test systems are NCI-H23; HCT-15; CCRF-CEM; SK-MEL-2; UACC-62; MDA-MB-231; A549; RXF 393; COLO 205; OVCAR-8; SN12C; IGROV-1; OVCAR-5; KM12; HOP-92; UACC-257; M14; MDA-MB-435; SF-268.
Holding throughout (assay): NCI anticancer screen, dose series, 48 h

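Interpolation was linear, between the two tested concentrations surrounding the appropriate level; five concentrations were tested over 48 hours in 96-well plates. GI50: concentration for 50% inhibition of growth.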 Activity calls are given as the source filed them. Rule as the data show it: active = GI50 up to about 1.1 µM and inactive = higher. Where only a bound is given, the exact number is not on record here.

Turning to `CCN(C(=S)N[C@@H](Cc1ccccc1)C(=O)N[C@@H](CC(C)C)C(=O)OC)c1ccccc1`, the GI50 is 71.4 µM (inactive) with NCI-H23; 49 µM with HCT-15; 33.5 µM (inactive) in the experiment on CCRF-CEM; > 100 µM (inactive) in the experiment with SK-MEL-2; > 100 µM (inactive) in the experiment on UACC-62; > 100 µM (inactive) in the experiment with MDA-MB-231. For the same compound, the GI50 was 78.2 µM (inactive) in the experiment with A549; > 100 µM (inactive) in the experiment with RXF 393; 49.2 µM (inactive) in the experiment on COLO 205; > 100 µM (inactive) in the experiment on OVCAR-8; > 100 µM (inactive) in the experiment on SN12C; 50.4 µM (inactive) in the experiment on IGROV-1. Besides, the GI50 was > 100 µM (inactive) in the experiment with OVCAR-5; 50.9 µM (inactive) in the experiment with KM12; > 100 µM (inactive) with HOP-92; > 100 µM (inactive) with UACC-257; > 100 µM (inactive) with M14; > 100 µM (inactive) in the experiment on MDA-MB-435.
For the compound `Cc1ccc(/C=C/C(=N/NC(=O)N/N=C(/C=C/c2ccc(C)cc2)C(C)C)C(C)C)cc1`, the GI50 in the experiment on NCI-H23 is > 10 µM (inactive); in the experiment on HCT-15 it was over 10 µM; with CCRF-CEM it was > 10 µM (inactive); in the experiment on SK-MEL-2 it was > 10 µM (inactive); in the experiment on SF-268, > 10 µM (inactive); in the experiment with MDA-MB-231, > 10 µM (inactive). In addition, the GI50 with A549 is > 10 µM (inactive); in the experiment with RXF 393, > 10 µM (inactive); with COLO 205 it was > 10 µM (inactive); in the experiment with OVCAR-8 it was > 10 µM (inactive); in the experiment with SN12C, 9.77 µM (inactive); with OVCAR-5 it was > 10 µM (inactive). Further, the GI50 in the experiment with KM12, with HOP-92, in the experiment on UACC-257, in the experiment with M14 and with MDA-MB-435 was > 10 µM (inactive) throughout.
For `CN(C)C1(N(C)C)Oc2c(c(=O)n(C)c(=O)n2C)C(c2ccc(F)cc2)C1(F)F` (centres undefined), the GI50 in the experiment on NCI-H23 is > 100 µM (inactive); in the experiment with HCT-15, over 100 µM; with CCRF-CEM it was > 100 µM (inactive); in the experiment on SK-MEL-2, > 100 µM (inactive); with SF-268 it was > 100 µM (inactive); in the experiment on UACC-62, > 100 µM (inactive). In addition, the GI50 in the experiment on MDA-MB-231, with A549, in the experiment on RXF 393, in the experiment on COLO 205, with OVCAR-5 and in the experiment with KM12 was > 100 µM (inactive) each time. Further, the GI50 in the experiment on HOP-92, in the experiment with UACC-257, in the experiment on M14 and with MDA-MB-435 was > 100 µM (inactive) in each case.
As for `CC(C)CC(NC(=O)C(CSc1ccc([N+](=O)[O-])cc1)Cc1ccccc1)C(=O)Nc1ccccc1` (centres undefined), the GI50 is > 100 µM (inactive) with NCI-H23; over 100 µM in the experiment with HCT-15; 33.1 µM (inactive) in the experiment on CCRF-CEM; > 100 µM (inactive) with SK-MEL-2; > 100 µM (inactive) in the experiment on UACC-62; > 100 µM (inactive) with MDA-MB-231. In addition, the GI50 in the experiment on A549 is 93.5 µM (inactive); with RXF 393, > 100 µM (inactive); in the experiment on COLO 205 it was > 100 µM (inactive); in the experiment with OVCAR-8, 48.8 µM (inactive); in the experiment with SN12C, > 100 µM (inactive); in the experiment on IGROV-1, 46.6 µM (inactive). In addition, the GI50 in the experiment with OVCAR-5 was > 100 µM (inactive); with KM12, 41.4 µM (inactive); in the experiment with HOP-92 it was > 100 µM (inactive); with UACC-257, > 100 µM (inactive); with M14, 99.8 µM (inactive); in the experiment on MDA-MB-435, > 100 µM (inactive).

(Values after ChEMBL document CHEMBL1201862, “PubChem BioAssay data set” (2004).)
